One assay has as its target T1, mTOR (Homo sapiens, UniProt P42345).
T1 construct: FLAG; made in house
Briefly: In Vitro mTOR Kinase Assay (Echo), Test (a)(ii). The class given is biochemical. Particulars: read-out: mTOR Kinase Assay (Echo). Put shortly:
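Inhibition of truncated mTOR (1362-2549, FLAG-tagged, purified from stably transfected HEK293 cells) is measured as reduced AlphaScreen signal from a phospho-T389-recognising antibody bound to the biotinylated peptide product. Kinase incubation lasts 2 hours at room temperature. Potency is given as IC50.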
T1 sequence (P42345 1362-2549): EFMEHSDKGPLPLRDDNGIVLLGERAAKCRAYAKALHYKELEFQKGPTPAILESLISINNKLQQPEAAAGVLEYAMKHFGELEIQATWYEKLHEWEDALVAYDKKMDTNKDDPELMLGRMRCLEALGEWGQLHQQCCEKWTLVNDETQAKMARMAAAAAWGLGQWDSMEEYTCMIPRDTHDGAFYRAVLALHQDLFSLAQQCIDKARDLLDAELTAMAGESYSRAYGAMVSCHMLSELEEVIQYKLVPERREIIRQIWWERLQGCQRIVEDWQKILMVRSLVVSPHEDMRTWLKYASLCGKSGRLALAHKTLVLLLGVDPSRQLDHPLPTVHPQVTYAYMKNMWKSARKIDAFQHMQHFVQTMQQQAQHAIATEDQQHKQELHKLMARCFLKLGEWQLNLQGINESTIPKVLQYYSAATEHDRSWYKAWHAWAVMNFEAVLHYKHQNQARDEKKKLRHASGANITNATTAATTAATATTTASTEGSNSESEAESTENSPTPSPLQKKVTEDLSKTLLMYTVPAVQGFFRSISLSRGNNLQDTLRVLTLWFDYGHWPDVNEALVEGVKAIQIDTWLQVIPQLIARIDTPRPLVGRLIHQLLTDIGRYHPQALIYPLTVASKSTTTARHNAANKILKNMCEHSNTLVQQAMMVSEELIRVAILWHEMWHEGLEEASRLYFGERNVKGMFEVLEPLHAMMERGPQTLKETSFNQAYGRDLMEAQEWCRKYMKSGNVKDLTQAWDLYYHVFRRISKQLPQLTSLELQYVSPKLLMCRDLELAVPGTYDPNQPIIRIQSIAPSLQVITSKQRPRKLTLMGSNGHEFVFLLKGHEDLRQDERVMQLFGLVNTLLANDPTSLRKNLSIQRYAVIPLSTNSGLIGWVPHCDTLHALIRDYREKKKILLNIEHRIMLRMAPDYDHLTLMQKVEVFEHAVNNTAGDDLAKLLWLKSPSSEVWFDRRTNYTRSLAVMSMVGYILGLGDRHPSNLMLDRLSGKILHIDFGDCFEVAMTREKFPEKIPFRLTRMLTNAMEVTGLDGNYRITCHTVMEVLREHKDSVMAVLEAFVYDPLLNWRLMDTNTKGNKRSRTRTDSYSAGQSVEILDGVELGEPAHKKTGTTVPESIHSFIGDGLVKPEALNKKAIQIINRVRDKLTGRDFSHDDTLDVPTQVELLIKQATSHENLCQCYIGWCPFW
In the case of `CN(C)CCNC(=O)Nc1ccc(-c2nc(N3CCOCC3)cc(C3(S(C)(=O)=O)CCC3)n2)cc1` [Example 12s, 3-(2-dimethylaminoethyl)-1-[4-[4-(1-methylsulfonylcyclobutyl)-6-morpholin-4-ylpyrimidin-2-yl]phenyl]urea], the IC50 was found to be 134 nM.

With `CCS(=O)(=O)C1(c2cc(N3CCOC[C@@H]3C)nc(-c3ccc(NC(=O)NCCO)cc3)n2)CC1` [Example 11e, 1-[4-[4-(1-ethylsulfonylcyclopropyl)-6-[(3S)-3-methylmorpholin-4-yl]pyrimidin-2-yl]phenyl]-3-(2-hydroxyethyl)urea], the IC50 turned out to be 1.35 nM.

Consider `C[C@H]1COCCN1c1cc(C2(S(=O)(=O)C3CC3)CC2)nc(-c2ccc(NC(=O)NC3(CO)CC3)cc2)n1` [Example 3s, 1-[4-[4-(1-cyclopropylsulfonylcyclopropyl)-6-[(3S)-3-methylmorpholin-4-yl]pyrimidin-2-yl]phenyl]-3-[1-(hydroxymethyl)cyclopropyl]urea], for which the IC50 came to 26.3 nM.

Turning to `CCNC(=O)Nc1ccc(-c2nc(N3CCOC[C@@H]3C)cc(C3(S(=O)(=O)C4CC4)CC3)n2)cc1` [Example 3e, 3-[4-[4-(1-cyclopropylsulfonylcyclopropyl)-6-[(3S)-3-methylmorpholin-4-yl]pyrimidin-2-yl]phenyl]-1-ethyl-urea], the IC50 stood at 1.66 nM.

Staying with this assay, now noted: table of enzyme assay Test (a)(ii); read-out: Test (a)(ii) IC50.
As for `C[C@H]1COCCN1c1cc(C2(S(=O)(=O)c3cncc(F)c3)CC2)nc(-c2ccc(NC(=O)NC3CC3)cc2)n1` [Example 17c, 3-cyclopropyl-1-[4-[4-[1-(5-fluoropyridin-3-yl)sulfonylcyclopropyl]-6-[(3S)-3-methylmorpholin-4-yl]pyrimidin-2-yl]phenyl]urea], the IC50 amounted to 1.79 nM.

As for `C[C@H]1COCCN1c1cc(C2(S(C)(=O)=O)CCC2)nc(-c2ccc(NC(=S)NCCCO)cc2)n1` [Example 62d, 3-(3-hydroxypropyl)-1-[4-[4-[(3S)-3-methylmorpholin-4-yl]-6-(1-methylsulfonylcyclobutyl)pyrimi-din-2-yl]phenyl]thiourea], the IC50 came to 22 nM.

On to `Cn1cc(NC(=O)Nc2ccc(-c3nc(N4CCOCC4)cc(C4(S(=O)(=O)C5CC5)CC4)n3)cc2)cn1` [Example 13i, 1-[4-[4-(1-cyclopropylsulfonylcyclopropyl)-6-morpholin-4-ylpyrimidin-2-yl]phenyl]-3-(1-methylpyrazol-4-yl)urea], for which the IC50 came to 2.75 nM.

Consider `C[C@H]1COCCN1c1cc(C2(S(=O)(=O)c3ccc(Cl)cc3)CCOCC2)nc(-c2ccc(NC(=O)NCCN(C)C)cc2)n1` [Example 23k, 1-[4-[4-[4-(4-chlorophenyl)sulfonyloxan-4-yl]-6-[(3S)-3-methylmorpholin-4-yl]pyrimidin-2-yl]phenyl]-3-(2-dimethylaminoethyl)urea], for which the IC50 stood at 1140 nM.

As for `O=C(Nc1ccc(-c2nc(N3CCOCC3)cc(C3(S(=O)(=O)c4ccccc4)CC3)n2)cc1)Nc1ncns1` [Example 36di, 1-[4-[4-[1-(benzenesulfonyl)cyclopropyl]-6-morpholin-4-ylpyrimidin-2-yl]phenyl]-3-(1,2,4-thiadiazol-5-yl)urea], the IC50 was determined as 9.23 nM.

Take `C[C@H]1COCCN1c1cc(C2(S(=O)(=O)CCO)CC2)nc(-c2ccc(NC(=O)NC3CCC3)cc2)n1` [Example 16a, 3-cyclobutyl-1-[4-[4-[1-(2-hydroxyethylsulfonyl)cyclopropyl]-6-[(3S)-3-methylmorpholin-4-yl]pyrimidin-2-yl]phenyl]urea]: the IC50 was determined as 10.1 nM.

In the case of `C[C@H]1COCCN1c1cc(C2(S(=O)(=O)c3ccccc3)CC2)nc(-c2ccc(NC(=S)Nc3cnn(C)c3)cc2)n1` [Example 37w, 1-[4-[4-[1-(benzenesulfonyl)cyclopropyl]-6-[(3S)-3-methylmorpholin-4-yl]pyrimidin-2-yl]phenyl]-3-(1-methylpyrazol-4-yl)thiourea], the IC50 was determined as 1.37 nM.

Consider `CCNC(=O)Nc1ccc(-c2nc(N3CCOCC3C(N)=O)cc(C3(S(=O)(=O)c4ccccc4)CC3)n2)cc1` (stereo not drawn) [Example 89, 4-[6-[1-(Benzenesulfonyl)cyclopropyl]-2-[4-(ethylcarbamoylamino)phenyl]pyrimidin-4-yl]morpholine-3-carboxamide], for which the IC50 was 485 nM.

Consider `C[C@H]1COC[C@H](C)N1c1cc(C2(S(=O)(=O)c3ccccc3)CC2)nc(-c2ccc(NC(=O)NC3CC3)cc2)n1` [Example 93, 1-[4-[4-[1-(Benzenesulfonyl)cyclopropyl]-6-[(3S,5S)-3,5-dimethylmorpholin-4-yl]pyrimidin-2-yl]phenyl]-3-cyclopropylurea], for which the IC50 stood at 5.05 nM.

For the compound `CN(C)CCNC(=O)Nc1ccc(-c2nc(N3CCOCC3)cc(C3(S(C)(=O)=O)CCC3)n2)cc1` [Example 12s, 3-(2-dimethylaminoethyl)-1-[4-[4-(1-methylsulfonylcyclobutyl)-6-morpholin-4-ylpyrimidin-2-yl]phenyl]urea], the IC50 came out at 117 nM.

For `C[C@H]1COCCN1c1cc(C2(S(=O)(=O)C3CC3)CC2)nc(-c2cnc(NC(=O)NC3CC3)nc2)n1` [Example 14w, 3-cyclopropyl-1-[5-[4-(1-cyclopropylsulfonylcyclopropyl)-6-[(3S)-3-methylmorpholin-4-yl]pyrimidin-2-yl]pyrimidin-2-yl]urea], the IC50 is 208 nM.

As for `CCNC(=O)Nc1ccc(-c2nc(N3CCOCC3C(=O)N(C)C)cc(C3(S(=O)(=O)c4ccccc4)CC3)n2)cc1` (stereo not drawn) [Example 90, 4-[6-[1-(Benzenesulfonyl)cyclopropyl]-2-[4-(ethylcarbamoylamino)phenyl]pyrimidin-4-yl]-N,N-dimethylmorpholine-3-carboxamide], the IC50 was 18.9 nM.

With `CC(C)NC(=O)Nc1ccc(-c2nc(N3CCOC[C@@H]3C)cc(C3(S(=O)(=O)c4ccccc4)CC3)n2)cc1` [Example 36bf, 1-[4-[4-[1-(benzenesulfonyl)cyclopropyl]-6-[(3S)-3-methylmorpholin-4-yl]pyrimidin-2-yl]phenyl]-3-propan-2-ylurea], the IC50 worked out at 4.57 nM.

With `Cc1ccc(S(=O)(=O)C2(c3cc(N4CCOC[C@@H]4C)nc(-c4ccc(NC(=O)NC5CC5)cc4)n3)CCC2)cc1` [Example 68, 3-Cyclopropyl-1-[4-[4-[(3S)-3-methylmorpholin-4-yl]-6-[1-(4-methylphenyl)sulfonylcyclobutyl]pyrimidin-2-yl]phenyl]urea], the IC50 was 1.41 nM.

Regarding `C[C@H]1COCCN1c1cc(C2(S(C)(=O)=O)CC2)nc(-c2ccc(NC(=S)NCCO)cc2)n1` [Example 35b, 3-(2-hydroxyethyl)-1-[4-[4-[(3S)-3-methylmorpholin-4-yl]-6-(1-methylsulfonylcyclopropyl)pyrimidin-2-yl]phenyl]thiourea], the IC50 stood at 0.577 nM.

Consider `C[C@H]1COCCN1c1cc(C2(S(C)(=O)=O)CCCC2)nc(-c2ccc(NC(=O)Nc3cnn(C)c3)nc2)n1` [Example 14r, 1-[5-[4-[(3S)-3-methylmorpholin-4-yl]-6-(1-methylsulfonylcyclopentyl)pyri-midin-2-yl]pyridin-2-yl]-3-(1-methylpyrazol-4-yl)urea], for which the IC50 is 10.3 nM.

`C[C@H]1COCCN1c1cc(C2(S(=O)(=O)C3CC3)CCCC2)nc(-c2ccc(NC(=O)NCCO)cc2)n1` [Example 36k, 1-[4-[4-(1-cyclopropylsulfonylcyclopentyl)-6-[(3S)-3-methylmorpholin-4-yl]pyrimidin-2-yl]phenyl]-3-(2-hydroxyethyl)urea]: the IC50 came to 13.1 nM.

Regarding `C[C@H]1COCCN1c1cc(C2(S(=O)(=O)c3ccc(F)c(Cl)c3)CC2)nc(-c2ccc(NC(=O)NCCO)cc2)n1` [Example 95c, 1-[4-[4-[1-(3-chloro-4-fluorophenyl)sulfonyl-cyclopropyl]-6-[(3S)-3-methylmorpholin-4-yl]pyrimidin-2-yl]phenyl]-3-(2-hydroxyethyl)urea], the IC50 came to 7.06 nM.

`CCS(=O)(=O)C1(c2cc(N3CCOC[C@@H]3C)nc(-c3ccc(NC(=O)NCCO)cc3)n2)CC1` [Example 11e, 1-[4-[4-(1-ethylsulfonylcyclopropyl)-6-[(3S)-3-methylmorpholin-4-yl]pyrimidin-2-yl]phenyl]-3-(2-hydroxyethyl)urea]: the IC50 was found to be 1.97 nM.

As for `Cc1csc(S(=O)(=O)C2(c3cc(N4CCOC[C@@H]4C)nc(-c4ccc(NC(=O)NCCCO)cc4)n3)CCCC2)n1` [Example 36dn, 3-(3-hydroxypropyl)-1-[4-[4-[(3S)-3-methylmorpholin-4-yl]-6-[1-[(4-methyl-1,3-thiazol-2-yl)sulfonyl]cyclopentyl]pyrimidin-2-yl]phenyl]urea], the IC50 was determined as 13.8 nM.

With `CNC(=O)Nc1ccc(-c2nc(N3CCOC[C@@H]3C)cc(C3(S(=O)(=O)c4ccc(C)cc4)CC3)n2)cc1` [Example 95l, 3-methyl-1-[4-[4-[(3S)-3-methylmorpholin-4-yl]-6-[1-(4-methylphenyl)sulfonylcyclopropyl]pyrimidin-2-yl]phenyl]urea], the IC50 turned out to be 1.09 nM.

As for `O=C(NCCCO)Nc1ccc(-c2nc(N3CCOCC3)cc(C3(S(=O)(=O)C4CC4)CC3)n2)cc1` [Example 13h, 1-[4-[4-(1-cyclopropylsulfonylcyclopropyl)-6-morpholin-4-ylpyrimidin-2-yl]phenyl]-3-(3-hydroxypropyl)urea], the IC50 was found to be 10.6 nM.

As to `CNC(=O)Nc1ccc(-c2nc(N3CCOC[C@@H]3C)cc(C3(S(=O)(=O)c4ccc(C(=O)N(C)C)cn4)CC3)n2)cc1` [Example 49, N,N-Dimethyl-6-[1-[2-[4-(methylcarbamoylamino)phenyl]-6-[(3S)-3-methylmorpholin-4-yl]pyrimidin-4-yl]cyclopropyl]sulfonylpyridine-3-carboxamide], the IC50 came out at 1.87 nM.

Consider `CCNC(=O)Nc1ccc(-c2nc(N3CCOC[C@@H]3C)cc(C3(S(=O)(=O)c4cncc(F)c4)CC3)n2)cc1` [Example 17a, 3-ethyl-1-[4-[4-[1-(5-fluoropyridin-3-yl)sulfonylcyclopropyl]-6-[(3S)-3-methylmorpholin-4-yl]pyrimidin-2-yl]phenyl]urea], for which the IC50 was 0.942 nM.

With `C[C@H]1COCCN1c1cc(C2(S(C)(=O)=O)CCOCC2)nc(-c2ccc(NC(=O)NCCO)cc2)n1` [Example 23c, 3-(2-hydroxyethyl)-1-[4-[4-[(3S)-3-methylmorpholin-4-yl]-6-(4-methylsulfonyloxan-4-yl)pyrimidin-2-yl]phenyl]urea], the IC50 was found to be 0.831 nM.

For `C[C@H]1COC[C@H](C)N1c1cc(C2(S(=O)(=O)C3CC3)CC2)nc(-c2ccc(NC(=O)NC3CC3)cc2)n1` [Example 92, 3-Cyclopropyl-1-[4-[4-(1-cyclopropylsulfonylcyclopropyl)-6-[(3S,5S)-3,5-dimethylmorpholin-4-yl]pyrimidin-2-yl]phenyl]urea], the IC50 was 7.93 nM.

The values are drawn from patent US20090018134A1, “Compounds - 945” (AstraZeneca AB, priority 2007, published 2009).
